Like-named read-outs stand apart in the source and are kept apart here.
What was measured:
Assay type in all cases: biochemical
[1] = target: T1, aggrecanase-1 (Homo sapiens, UniProt O75173); assay: Aggrecanase-1 inhibitory action (Particle Assay, GAG release from aggrecan-containing polyacrylamide particles)
T1 sequence (O75173 213-837): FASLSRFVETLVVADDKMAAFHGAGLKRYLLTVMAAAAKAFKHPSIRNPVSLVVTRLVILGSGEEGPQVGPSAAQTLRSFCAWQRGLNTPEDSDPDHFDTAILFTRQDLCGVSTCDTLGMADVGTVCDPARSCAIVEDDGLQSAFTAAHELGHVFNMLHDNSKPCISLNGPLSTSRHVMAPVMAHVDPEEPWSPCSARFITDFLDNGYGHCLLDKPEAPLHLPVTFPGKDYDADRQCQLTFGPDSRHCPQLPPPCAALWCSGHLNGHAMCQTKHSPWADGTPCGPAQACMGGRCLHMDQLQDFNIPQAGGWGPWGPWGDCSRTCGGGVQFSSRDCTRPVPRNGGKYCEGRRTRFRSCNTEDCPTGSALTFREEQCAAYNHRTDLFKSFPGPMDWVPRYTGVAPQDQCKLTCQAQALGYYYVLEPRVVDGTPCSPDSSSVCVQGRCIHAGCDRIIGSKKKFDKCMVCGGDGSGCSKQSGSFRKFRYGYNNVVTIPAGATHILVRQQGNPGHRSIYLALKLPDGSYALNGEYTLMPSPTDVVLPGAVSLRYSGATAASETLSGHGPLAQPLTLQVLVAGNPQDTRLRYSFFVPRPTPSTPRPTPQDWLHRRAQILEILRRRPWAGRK
Procedure, shortened: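 Readout was dimethylmethylene blue absorbance (595 nm) of glycosaminoglycan liberated into supernatant, calibrated with whale chondroitin sulfate. Substrate was aggrecan in polyacrylamide particles, digested 15 h at 37° C in Tris-HCl; TC50 (μM) derived from inhibition relative to no-enzyme and no-inhibitor controls.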

[2] = target: T2, MMP-1 (Homo sapiens, UniProt P03956); assay: MMP-1 inhibitory action (Type I collagen Activity Measurement kit, FITC-labeled collagen type I)
T2 sequence (P03956 100-469): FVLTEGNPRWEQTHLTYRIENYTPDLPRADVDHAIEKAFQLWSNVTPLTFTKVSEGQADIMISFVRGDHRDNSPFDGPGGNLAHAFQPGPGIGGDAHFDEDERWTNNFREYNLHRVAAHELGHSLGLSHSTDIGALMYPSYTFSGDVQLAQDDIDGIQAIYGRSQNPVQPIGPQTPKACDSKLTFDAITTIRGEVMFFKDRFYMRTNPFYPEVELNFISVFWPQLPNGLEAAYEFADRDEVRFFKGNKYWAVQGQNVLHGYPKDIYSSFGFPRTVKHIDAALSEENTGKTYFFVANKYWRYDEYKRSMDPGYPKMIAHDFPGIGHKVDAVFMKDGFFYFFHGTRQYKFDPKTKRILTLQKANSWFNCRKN

[3] = target: T3, Recombinant Human MMP-13 (Homo sapiens, UniProt P45452); assay: MMP-13 inhibitory activity (MMP-13 specific fluorescent substrate with quencher)
T3 construct: purchased R&D systems 511-MM
Procedure, shortened: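 IC50 (μM) derived from % inhibition, normalised to wells without enzyme and without inhibitor, fluorescence read at 325/405 nm. Enzyme and compound preceded addition of the quenched 7-MCA…DPA substrate; Tris-HCl buffer, 25 °C for 1 h, acetic-acid stop.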

[4] = aggrecanase-1 inhibitory action, read-out: IC50 AG1 (Experimental Example 1)
[5] = MMP-1 inhibitory action, FITC-labeled collagen type I, 37° C. for 3 hr, read-out: IC50 MMP1 (Experimental Example 2)
[6] = Recombinant Human MMP-13, fluorescent substrate, 25° C. for 1 h, read-out: IC50 MMP13 (Experimental Example 3)
[7] = Experimental Example 1, read-out: IC50 AG1
[8] = Experimental Example 2, read-out: IC50 MMP1
[9] = Experimental Example 3, read-out: IC50 MMP13

Compound | IC50 [1, 4] | IC50 [2, 5] | IC50 [3, 6] | IC50 [1, 7] | IC50 [2, 8] | IC50 [3, 9]
O=C(CCc1cccc(C2CC2(NS(=O)(=O)c2ccc(-c3ccc(Cl)cc3)s2)C(=O)O)c1)N1CCOCC1 (stereo not drawn) [Example 2-209] | < 100 nM | ≥ 1000 nM | < 100 nM |  |  | 
CC(=O)NCC1(c2ccccc2)CC1(NS(=O)(=O)c1ccc(-c2ccc(Cl)cc2)s1)C(=O)O (stereo not drawn) [Example 2-376] |  |  |  | < 1000 nM | ≥ 10000 nM | < 1000 nM
C[C@]1(c2ccccc2)C[C@@]1(NS(=O)(=O)c1ccc(-c2ccc3nnn(O)c3c2)s1)C(=O)O [Example 2-487] |  |  |  | ≥ 1000 nM | ≥ 10000 nM | ≥ 1000 nM
O=C(O)COCC1(c2ccccc2)CC1(NS(=O)(=O)c1ccc(-c2ccc(Cl)cc2)s1)C(=O)O (stereo not drawn) [Example 2-405] |  |  |  | < 100 nM | ≥ 10000 nM | < 1000 nM
O=C(O)C1(NS(=O)(=O)c2ccc(-c3cc(C(F)(F)F)on3)s2)CC1(CN1CCCC1)c1ccccc1 (stereo not drawn) [Example 2-329] |  |  |  | ≥ 1000 nM | ≥ 10000 nM | ≥ 1000 nM
C[C@]1(c2ccc(F)cc2)C[C@@]1(NS(=O)(=O)c1ccc(-c2cc(C(F)(F)F)on2)s1)C(=O)O [Example 2-621] |  |  |  | < 100 nM | < 1000 nM | < 100 nM
O=C(O)C1(NS(=O)(=O)N2CCN(Cc3ccccc3)CC2)CC1c1ccccc1 (stereo not drawn) [Example 2-158] | ≥ 10000 nM | ≥ 10000 nM | ≥ 10000 nM |  |  | 
O=C(O)C1(NS(=O)(=O)N2CCC(Oc3ccc(Cl)cc3)CC2)CC1c1ccccc1 (stereo not drawn) [Example 2-128] | ≥ 10000 nM | ≥ 10000 nM | ≥ 10000 nM |  |  | 
O=C(O)C1(NS(=O)(=O)c2ccc(-c3ccc(Cl)cc3)s2)CC1c1ccccc1OCc1cccnc1 (stereo not drawn) [Example 2-22] | < 100 nM | ≥ 10000 nM | < 100 nM |  |  | 
COC(=O)Nc1cccc(C2CC2(NS(=O)(=O)c2ccc(-c3ccc(Cl)cc3)cc2)C(=O)O)c1 (stereo not drawn) [Example 1-41] | < 1000 nM | ≥ 1000 nM | < 100 nM |  |  | 
CC1[C@H](c2ccccc2)[C@]1(NS(=O)(=O)c1ccc(-c2cc(C3CC3)on2)s1)C(=O)O (stereo partly drawn) [Example 2-433] |  |  |  | < 100 nM | < 1000 nM | < 100 nM
C[C@@H]1[C@H](c2ccccc2)[C@]1(NS(=O)(=O)c1ccc(-c2cc(C(C)(F)F)on2)s1)C(=O)O [Example 2-9, (1S,2R,3R)-1-{5-[5-(1,1-difluoro-ethyl)-isoxazol-3-yl]-thiophene-2-sulfonylamino}-2-methyl-3-phenyl-cyclopropanecarboxylic acid] | < 100 nM | < 100 nM | < 100 nM |  |  | 
COCCN(C)Cc1ccccc1C1CC1(NS(=O)(=O)c1ccc(-c2ccc(Cl)cc2)s1)C(=O)O (stereo not drawn) [Example 2-89] | ≥ 1000 nM | ≥ 10000 nM | ≥ 1000 nM |  |  | 
C[C@]1(c2ccccc2)C[C@@]1(NS(=O)(=O)c1ccc(-c2cc(CF)sn2)s1)C(=O)O [Example 2-121] | < 100 nM | < 1000 nM | < 100 nM |  |  | 
O=C(O)C1(NS(=O)(=O)c2ccc(-c3ccc(Cl)cn3)s2)C2CCCc3ccccc3C21 (stereo not drawn) [Example 2-365] |  |  |  | < 100 nM | < 1000 nM | < 100 nM
CN(C)c1cccc([C@H]2C[C@@]2(NS(=O)(=O)c2ccc(-c3ccc(Cl)cc3)s2)C(=O)O)c1 [Example 2-176] | < 100 nM | ≥ 10000 nM | < 100 nM |  |  | 

Compound | IC50 [1, 4] | IC50 [2, 5] | IC50 [3, 6] | IC50 [1, 7] | IC50 [2, 8] | IC50 [3, 9]
C[C@]1(c2ccccc2)C[C@@]1(NS(=O)(=O)c1ccc(-c2cccc(N)c2)s1)C(=O)O [Example 2-452] |  |  |  | < 1000 nM | < 1000 nM | < 100 nM
CN(C)C(=O)Cc1ccc([C@@H]2C[C@]2(NS(=O)(=O)c2ccc(-c3cc(C(F)(F)F)on3)s2)C(=O)O)cc1 [Example 2-290] |  |  |  | < 100 nM | < 1000 nM | < 100 nM
CC(C)(CO)NC(=O)c1cccc(C2CC2(NS(=O)(=O)c2ccc(-c3ccc(Cl)cc3)s2)C(=O)O)c1 (stereo not drawn) [Example 2-74] | < 1000 nM | ≥ 10000 nM | < 100 nM |  |  | 
O=C(O)C1(NS(=O)(=O)c2ccc(-c3cc(C(F)(F)F)on3)s2)CC1c1cccc(CCCO)c1 (stereo not drawn) [Example 2-236] | < 1000 nM | ≥ 1000 nM | < 100 nM |  |  | 
CC1C(c2ccccc2)C1(NS(=O)(=O)c1ccc(CCc2ccccc2)s1)C(=O)O (stereo not drawn) [Example 2-541] |  |  |  | ≥ 1000 nM | ≥ 1000 nM | ≥ 1000 nM
O=C(O)C1(NS(=O)(=O)c2ccc(OCc3ccc(Cl)cc3Cl)cc2)C2CCCc3ccccc3C21 (stereo not drawn) [Example 2-363] |  |  |  | ≥ 1000 nM | ≥ 10000 nM | < 1000 nM
O=C(O)C1(NS(=O)(=O)c2ccc(-c3ccc(Cl)cc3)s2)CC1C1CCC1 (stereo not drawn) [Example 2-58] | < 1000 nM | ≥ 10000 nM | < 1000 nM |  |  | 
CC(C)OC(=O)N1CCN(S(=O)(=O)N[C@@]2(C(=O)O)C[C@@H]2c2ccccc2)CC1 [Example 2-510] |  |  |  | ≥ 1000 nM | ≥ 1000 nM | ≥ 1000 nM
CC(C)Nc1ccc2c(c1)CN(S(=O)(=O)N[C@@]1(C(=O)O)C(C)[C@@H]1c1ccccc1)C2 (stereo partly drawn) [Example 2-552] |  |  |  | ≥ 1000 nM | ≥ 1000 nM | < 1000 nM
CC1[C@H](c2ccccc2)[C@]1(NS(=O)(=O)c1ccc(-c2cc(C#N)on2)s1)C(=O)O (stereo partly drawn) [Example 2-579] |  |  |  | < 100 nM | < 1000 nM | < 100 nM
O=C(O)C1(NS(=O)(=O)c2ccc(-c3ccc(Cl)cc3)s2)CC1c1cccc(NCc2cccnc2)c1 (stereo not drawn) [Example 1-129] | < 100 nM | ≥ 1000 nM | < 100 nM |  |  | 
CC1[C@H](c2ccccc2)[C@]1(NS(=O)(=O)c1ccc(OCc2ccc(Cl)cc2Cl)cc1)C(=O)O (stereo partly drawn) [Example 2-324] |  |  |  | ≥ 1000 nM | ≥ 10000 nM | ≥ 1000 nM
O=C(O)C1(NS(=O)(=O)c2ccc(-c3cc(C(F)(F)F)on3)s2)CC1(CN1CCOCC1)c1ccccc1 (stereo not drawn) [Example 2-322] |  |  |  | < 100 nM | ≥ 1000 nM | < 1000 nM
Cc1cn(-c2ccc(S(=O)(=O)N[C@@]3(C(=O)O)C(C)[C@@H]3c3ccccc3)s2)cn1 (stereo partly drawn) [Example 2-367] |  |  |  | ≥ 1000 nM | ≥ 10000 nM | ≥ 1000 nM
C[C@]1(c2ccccc2)C[C@@]1(NS(=O)(=O)c1ccc(-c2ccc(F)c(C#N)c2)s1)C(=O)O [Example 2-420] |  |  |  | ≥ 1000 nM | ≥ 10000 nM | ≥ 1000 nM
O=C(O)C1(NS(=O)(=O)c2ccc(-c3cc(C(F)F)on3)s2)C2CCCc3ccccc3C21 (stereo not drawn) [Example 2-383] |  |  |  | < 100 nM | < 1000 nM | < 100 nM

— patent US20080261994A1, “CYCLOPROPANE COMPOUNDS AND PHARMACEUTICAL USE THEREOF” (Japan Tobacco Inc., priority 2003, published 2008)
